In ChEMBL document CHEMBL4028829, “New derivatives of ursolic acid through the biotransformation by Bacillus megaterium CGMCC 1.1741 as inhibitors on nitric oxide production” (Bioorg Med Chem Lett, 2017):

Columns and labels:
[1] = test system: RAW264.7; assay: Inhibition of LPS-induced NO production in mouse RAW264.7 cells preincubated for 1 hr followed by LPS stimulation measured after 24 hrs by Griess assay; type: functional, cell-based
[2] = test system: RAW264.7; assay: Pro-inflammatory activity in mouse RAW264.7 cells assessed as LPS-induced NO production at 0.625 to 60 uM preincubated for 1 hr followed by LPS stimulation measured after 24 hrs by Griess assay; type: ADME, cell-based; details: raw264.7, 24 h
[3] = Mus musculus, RAW264.7, read-out: IC50

IC50 ([1]; raw264.7)	IC50 [1, 3] [µM]	SMILES	Activity [2]
Not Active	–	C[C@H]1[C@H](C)CC[C@]2(C(=O)O)CC[C@]3(C)C(=CC[C@@H]4[C@@]5(C)CC[C@H](O)C(C)(C)[C@@H]5CC[C@]43C)[C@H]12 [URSOLIC ACID]	Toxic
–	> 60	C[C@H]1[C@H](C)CC[C@]2(C(=O)O[C@@H]3O[C@H](CO)[C@@H](O)[C@H](O)[C@H]3O)CC[C@]3(C)C(=C[C@@H](O)[C@@H]4[C@@]5(C)[C@H](O)CC(=O)C(C)(C)[C@@H]5CC[C@]43C)[C@H]12	–
–	40.1	C[C@H]1[C@H](C)CC[C@]2(C(=O)O)CC[C@]3(C)C(=C[C@@H](O)[C@@H]4[C@@]5(C)[C@H](O)C[C@H](O)C(C)(C)[C@@H]5CC[C@]43C)[C@H]12	–
–	1.24	C[C@H]1[C@H](C)CC[C@]2(C(=O)O)CC[C@]3(C)C(=C[C@@H](O)[C@@H]4[C@@]5(C)[C@H](O)CC(=O)C(C)(C)[C@@H]5CC[C@]43C)[C@H]12	–

Second part, the compound before the results:

SMILES	IC50 ([1]; raw264.7)	IC50 [1, 3] [µM]	Activity [2]
O=c1c(O)c(-c2ccc(O)c(O)c2)oc2cc(O)cc(O)c12 [QUERCETIN]	–	4.41	–
C[C@H]1[C@H](C)CC[C@]2(C(=O)O)CC[C@]3(C)C(=CC[C@@H]4[C@@]5(C)CCC(=O)C(C)(C)[C@@H]5CC[C@]43C)[C@H]12 [URSONIC ACID]	–	4.94	–
C[C@H]1[C@H](C)CC[C@@]23CC[C@]4(C)[C@@](C=C[C@@H]5[C@@]6(C)[C@H](O)CC(=O)C(C)(C)[C@@H]6CC[C@]54C)(OC2=O)[C@H]13	–	1.71	–
